According to patent publication US11952584B2, “Functional peptides having antimicrobial activity against phytopathogenic microorganisms” (TOYOTA JIDOSHA KABUSHIKI KAISHA, priority 2019, dated 2024):
Where “and” joins values, the source holds several entries; their conditions need not be identical. Identical values can stand only once. Like-named read-outs stand apart in the source and are kept apart here.

Assays:
Assay type in all cases: cell-based
[1] = tested on: Colletotrichum destructivum; settings: 25° C., 1 day or 2 days
[2] = tested on: plant pathogenic filamentous fungi; settings: summary of Table 3
Pyricularia oryzae = settings: 25° C., 1 day or 2 days
Fusarium oxysporum = tested on: Fusarium oxysporum
Botrytis cinerea = settings: 25° C., 1 day or 2 days
[3] = tested on: Colletotrichum orbiculare; settings: 25° C., 1 day or 2 days

| Substance | Plate antimicrobial activity test Colletotrichum destructivum (level) ([1]; peptide 1 μM) | Plate antimicrobial activity test Colletotrichum destructivum (level) ([1]; peptide 10 μM) | Plate antimicrobial activity test Colletotrichum destructivum (level) ([1]; peptide 100 μM) | germination inhibitory activity against plant pathogenic filamentous fungi (in words) [2] | Plate antimicrobial activity test Pyricularia oryzae (level) (Pyricularia oryzae; peptide 1 μM) | Plate antimicrobial activity test Pyricularia oryzae (level) (Pyricularia oryzae; peptide 10 μM) | Plate antimicrobial activity test Pyricularia oryzae (level) (Pyricularia oryzae; peptide 100 μM) | Plate antimicrobial activity test Fusarium oxysporum (level) (Fusarium oxysporum) | Plate antimicrobial activity test Botrytis cinerea (level) (Botrytis cinerea; peptide 1 μM) | Plate antimicrobial activity test Botrytis cinerea (level) (Botrytis cinerea; peptide 10 μM) | Plate antimicrobial activity test Botrytis cinerea (level) (Botrytis cinerea; peptide 100 μM) | Plate antimicrobial activity test Collectotrichum orbiculare (level) ([3]; peptide 1 μM) | Plate antimicrobial activity test Collectotrichum orbiculare (level) ([3]; peptide 10 μM) | Plate antimicrobial activity test Collectotrichum orbiculare (level) ([3]; peptide 100 μM) |
| --- | --- | --- | --- | --- | --- | --- | --- | --- | --- | --- | --- | --- | --- | --- |
| ERTRKFWR (listed as Solanum lycopersicum) [TsORF18-2-8aa-9] | 0 | 0 | 0 | extremely excellent germination inhibitory activity | 0 | 0 | 1 | 3 and 0 | 0 | 0 | 3 | 0 | 0 | 1 |
| WRIWK (listed as Solanum lycopersicum) [TsORF18-2-5aa-15] | 0 | 0 | 3 | extremely excellent germination inhibitory activity | 0 | 0 | 0 | 2 and 0 | 0 | 0 | 3 | 0 | 0 | 2 |
| YGFPAFSE (listed as Solanum lycopersicum) [TsORF18-2-8aa-2] | 0 | 0 | 0 | – | 0 | 0 | 0 | 0 | 0 | 0 | 0 | 0 | 0 | 0 |
| YYGFP (listed as Solanum lycopersicum) [TsORF18-2-5aa-1] | 0 | 0 | 0 | – | 0 | 0 | 0 | 0 | 0 | 0 | 0 | 0 | 0 | 0 |
| YYGFPAFS (listed as Solanum lycopersicum) [TsORF18-2-8aa-1] | 0 | 0 | 0 | – | 0 | 0 | 0 | 0 | 0 | 0 | 0 | 0 | 0 | 0 |
